According to patent US20230048338A1, “NOVEL CELLULAR DELIVERY METHODS” (PYC Therapeutics Limited, priority 2019, published 2023):

What was measured:
GFAP = GFAP in vivo toxicity assay (ddPCR of Gfap mRNA after intravitreal injection); conditions: 5 days, mouse; for GFAP score (± SD): intravitreal 1.6 ug per eye, Gfap mRNA normalised to housekeeping genes
Excerpt: Glial fibrillary acidic protein (GFAP) is an intermediate-filament cytoskeletal protein. Levels of GFAP are strongly influenced by injury or stress in some cell types and GFAP expression has become an important marker of injury in the central nervous system. In the eye, Muller glia cells normally express low levels of GFAP which increases considerably following retinal injury.
Expression of GFAP mRNA was quantified via amplification of cDNA obtained as part of the in vivo Smn efficacy assay described above. ddPCR was performed using BioRad droplet generator and reader (QX200 DG8) and thermocyclers (T100), specific probes for murine Gfap (dMmuCPE5116126) and housekeeping genes Gapdh, Eef1a1 and Rp127 (dMmuCPE5195283, dMmuCPE5101732 and dMmuCPE5197083) as well as ddPCR Master mix for Probes (#1863024) and other ddPCR specific consumables from BioRad (#1863005, 12001925, 1863004, 1864007).
Assay results were obtained by BioRad ddPCR software in copies/uL. This was then normalised to housekeeping genes for comparison across experiments.

Smn gene exon 7 = experiment: In vivo Smn efficacy assay (IVT administration), exon-7 skipping in ocular tissues; conditions: mouse; for Percent exon7-skipped SMN1 transcript (± SD): intravitreal 1.6 ug per eye
Excerpt: The in vitro SMN1 efficacy assay described in Example 1 is equally applicable to the in vivo setting, given the ubiquitous distribution of the Smn gene in the mouse body, Smn being the mouse orthologue of the human SMN1. The use of natural L-peptides is undesirable in the in vivo setting, due to presence of a vast array of proteases in the body. To adequately assess the peptide's cell-penetrating capacity, peptides were synthesized as either mixed-L/D amino acid containing peptides, where all basic residues were D-amino acids, or as full-D amino acid containing peptides. Both approaches have been established to protect peptides from proteolytic degradation during systemic administration into animals.
The ability of CPP-PMOs to deliver the Smn cargo in vivo to the RPE cell later in the eye was assessed by administration into the vitreous humor of mice and measuring the change in Smn transcript levels in the retina, RPE and choroid cell layers after 5, 7, 21 and 28 days. The CPP of the present invention (SEQ ID NO: 1) and control CPP Pip6a (SEQ ID NO: 3), conjugated to an Smn PMO (SEQ ID NO: 2), were administered by intravitreal injection at 1.6 ug (0.5 ul volume) per eye. At the desired time point post treatment, the animals were culled and eyes were dissected, tissue layers homogenised and RNA extracted using the same protocol as per Example 1.
The efficiency of delivery and function to the various organs was determined by measuring the change in Smn RNA transcript from full-length to an exon-7 skipped fragment (D7-Smn) RNA transcript, using RNA extraction, cDNA generation and PCR using Smn-specific primers. Efficiency was interpreted by the higher the percentage D7-Smn transcript, the better the delivery to the tissue by the CPP.
Exon skipping assays and RT-PCR detection were performed according to published protocols (Mann et al 2002, Gene Med, 4, 644-654).
Mice (C576/6; age 7 weeks) were sourced from Australian BioResources (ABR). Selected CPP-PMOs were injected into the vitreous at 1.6 ug (0.5 ul) per eye, with one to three mice per treatment group.
48 h post-treatment, mice were culled, and the following ocular tissues harvested; retina, RPE layer or RPE/choroid combined. The tissues were homogenised, and RNA was obtained using commercial RNA extraction kits according to manufacturer's protocol (Bio-Rad Aurum total RNA 96 kit; Quantify RNA yield; Quant-iT RNA BR kit).
(§1) Extracted RNA was purified, quantified and then diluted to 10 ng/ul. cDNA was produced using a commercial reverse transcription kit according to the manufacturers protocol (BioRad iScript). The produced cDNA was used as a template with primers designed to amplify region of interest, to amplify the DNA. The efficacy of exon skipping was determined by quantifying full length (FL Smn) and exon-7 skipped fragment (D7-Smn) of the Smn gene (LC-GX Nucleic Acid Analyzer) and calculating a percentage. The higher the percentage of D7-Smn DNA, the greater the CPP delivery efficiency.

ARPE-19 cells = experiment: In vitro SMN1 viability assay (CellTiter-Glo); type: cell-based; conditions: for Percent Mean Viability (± SD): 48 h
Protocol: (§2) Cells were seeded in 96-well plates (ARPE-19, 4×10^3 cells/well) in complete medium (DMEM/F12 1:1, 10% FCS; 10 mM HEPES, 1× GlutaMAX™, Pen/Strep 100 u/ml; Gibco, Thermo Fisher Scientific, Waltham, Mass., USA). Cells were incubated overnight (37° C., 5% CO2) to allow for cell adherence. On the day of the assay, media was aspirated and replaced with CPP-PMO or PMO only diluted in treatment media (DMEM/F12 1:1, 10% FCS; 10 mM HEPES, 1× GlutaMAX™, Pen/Strep 100 u/ml; Gibco, Thermo Fisher Scientific, Waltham, Mass., USA) at various concentrations (32, 16, 8, 4, 2, and 1 uM), followed by incubation (37° C., 5% CO2) for 24 h. Fresh media 1:1 was added the following day and cells returned to the incubator for a further 24 h.
48 h post-treatment, viability of the cells was measured using the commercial CellTiter-Glo® Luminescent Cell Viability Assay (Promega, Australia). In brief the CellTiter-Glo reagent lyses the cells and generates a luminescent signal that is proportional to the amount of ATP present, which in turn is directly proportional to the number of live cells present in culture. All assays were conducted with a known cytotoxic agent, melittin (Renata et al. 2007), and cell only control. Cell viability was used to determine the level of toxicity caused by the CPP-PMO conjugates, where high viability equates to low toxicity, and low viability with high toxicity, respectively.

exon 7 of the SMN1 gene = experiment: In vitro SMN1 efficacy assay (exon-7 skipping, ARPE-19 cells); type: cell-based, human; conditions: for Percent exon7-skipped SMN1 transcript (± SD): 48 h post treatment
Protocol: Potential CPP peptides were linked to a […] that targets exon 7 of the SMN1 gene (Flynn et al 2018), using strain-promoted (SPAAC) click chemistry (Agard et al 2004, Dommerholt et al. 2016). Peptide-PMO conjugates were incubated on ARPE-19 cells for 2 days in full media. Efficacy of internalization was measured by the degree of exon7 skipping in the SMN1 gene RNA transcript through RNA extraction. Peptide-PMOs with % d7 transcript higher than the PMO treatment alone were considered CPPs.
Using the SMN1 gene, we built an exon-skipping assay targeting the SMN1 gene (Flynn et al 2018) at exon-7 using a phosphorodiamidate morpholino oligonucleotide (PMO) conjugated to different CPPs. This assay was used to identify CPPs that could efficiently deliver PMO cargo to the nucleus and effect exon-skipping of SMN1. Efficiency of delivery and function was determined by measuring the change in D7-SMN1 RNA transcript, using RNA extraction, cDNA generation and PCR using SMN1-specific primers. Efficiency was interpreted by the higher the percentage D7-SMN1 transcript, the better the delivery to the nucleus by the CPP.
Exon skipping assays and PCR detection were performed according to published protocols (Mann et al 2002, Gene Med, 4, 644-654).
Retinal pigment epithelial cells (ARPE-19) immortalized cells were treated with various concentrations (4 uM, 2 uM, 1 uM, in duplicate) of CPP-PMO conjugate and SMN1 transcript levels assessed 48 h post treatment by RNA extraction and purification, followed by cDNA generation and PCR.
as §2, with “24-well” for “96-well”, “2.5×10^4” for “4×10^3”, “USA),” for “USA) at various concentrations (32, 16, 8, 4, 2, and 1 uM),”
48 h post-treatment, the cell media was carefully aspirated, and cells rinsed with PBS. RNA from the treated cells was obtained using commercial RNA extraction kits according to manufacturer's protocol (Bio-Rad Aurum total RNA 96 kit; Quantify RNA yield; Quant-iT RNA BR kit).
as §1, with “SMN1)” for “Smn)”, “(D7-SMN1)” for “(D7-Smn)”, “SMN1” for “Smn”, “D7-SMN1” for “D7-Smn”, “efficiency” for “efficiency.”

Substance	GFAP score (± SD) (GFAP)	Percent exon7-skipped SMN1 transcript (± SD) (Smn gene exon 7; RPE/choroid, 5 days) [%]	Percent exon7-skipped SMN1 transcript (± SD) (Smn gene exon 7; RPE/choroid, 7 days) [%]	Percent exon7-skipped SMN1 transcript (± SD) (Smn gene exon 7; retina, 5 days) [%]	Percent exon7-skipped SMN1 transcript (± SD) (Smn gene exon 7; retina, 28 days) [%]	Percent Mean Viability (± SD) (ARPE-19 cells; 2 uM) [%]	Percent Mean Viability (± SD) (ARPE-19 cells; 4 uM) [%]	Percent Mean Viability (± SD) (ARPE-19 cells; 8 uM) [%]	Percent Mean Viability (± SD) (ARPE-19 cells; 16 uM) [%]	Percent Mean Viability (± SD) (ARPE-19 cells; 32 uM) [%]	Percent exon7-skipped SMN1 transcript (± SD) (exon 7 of the SMN1 gene; 1 uM)	Percent exon7-skipped SMN1 transcript (± SD) (exon 7 of the SMN1 gene; 2 uM)	Percent exon7-skipped SMN1 transcript (± SD) (exon 7 of the SMN1 gene; 4 uM)	GFAP expression in vivo (in words) (GFAP; intravitreal)	Truncated D7-Smn transcript in vivo compared with Smn PMO alone (in words) (Smn gene exon 7; intravitreal, RPE/choroid and retina)	Cell viability relative to PMO alone (less deleterious) (ARPE-19 cells; 32 uM for 48 hours) [fold]	Efficiency in inducing SMN1 exon-skipping relative to SMN1 PMO only treatment (exon 7 of the SMN1 gene; 2 uM) [fold]
ACTTTCCTTCTTTTTTATTTTGTCT (PMO, 5' cyclooctyne handle, chemistry not fully specified; listed as Homo sapiens) [SEQ ID NO: 2, phosphorodiamidate morpholino oligonucleotide (PMO) targeting exon 7 of SMN1, with 5' cyclooctyne handle; unconjugated cargo control]	0.0262	0.00	0.00	0.00	0.77	99.41	100.01	99.11	97.42	93.61	16.59 (± 4.07) Percent	17.35 (± 4.97) Percent	18.34 (± 5.99) Percent				
RXRRBRRXRYQFLIRXRBRXRB[azk]ACTTTCCTTCTTTTTTATTTTGTCT [SEQ ID NO: 3[azk]2]	0.1637	9.94	6.70	21.66	3.39												
rrsrtaraGrpGrnssrpsapr[azk]ACTTTCCTTCTTTTTTATTTTGTCT (chain 1 RRSRTARAGRPGRNSSRPSAPR; chain 2 actttccttcttttttattttgtct; azidolysine SPAAC click linkage; listed as Homo sapiens) [SEQ ID NO: 1[azk]2]	0.0324	13.05	12.22	19.61	13.71	102.61	105.23	103.34	102.52	98.20	19.44 (± 3.82) Percent	21.38 (± 2.10) Percent	29.99 (± 3.96) Percent	very little GFAP expression	creates more truncated D7-Smn transcript than the Smn PMO alone	1.05	1.2
